This note sets out measurements from patent publication US10189863B2, “5,6-dihydro-4H-benzo[b]thieno-[2,3-d]azepine derivatives” (PULMOCIDE LIMITED, priority 2014, dated 2019).

Some results are limits rather than exact numbers.

A word on the IC50: it is the point on the concentration scale where inhibition reaches its midpoint. One may read the inhibition as the relative decrease from the control value, in per cent. Broadly, the CC50 is the concentration at which the toxic effect on the cells reaches its halfway point. A higher CC50 goes with better tolerance by the cells.

The test system of one data set is RSV B Washington strain. The data set can be described thus: Assessment of RSV induced CPE in HEp2 cells (RSV B Washington strain). To be noted: human respiratory syncytial virus, HEp2 cells; for IC50: HEp-2, 144 h, 1 MOI, 6 days, read-out: RSV B CPE IC50; for inhibition at 1 µg/mL: Inhibition (%) at 1 μg/mL, read-out: RSV B CPE % Inhibition. It counts as cell-based. The essentials: (§1)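 HEp2 cells were infected at MOI 1 with RSV A2 or RSV B Washington, with compound added at the same time (0.5% DMSO final). Incubation was 5 days for A2 and 6 days for B, then viability was read by resazurin fluorescence (545/590 nm) after 6 h. IC50, IC75 and IC90 came from concentration-response curves.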

The test system of the next data set is RSV A2 strain. The data set can be described thus: Assessment of RSV induced CPE in HEp2 cells (RSV A2 strain). Type of data set: cell-based. To be noted: human respiratory syncytial virus, HEp2 cells; for IC50: HEp-2, 120 h, 1 MOI, 5 days, read-out: RSV A2 CPE IC50; for inhibition at 0.1 µg/mL / inhibition at 0.01 µg/mL: HEp-2; for inhibition at 0.1 µg/mL: Inhibition (%) at 0.1 μg/mL, read-out: RSV A2 CPE % Inhibition; for inhibition at 0.01 µg/mL: Inhibition (%) at 0.01 μg/mL. An outline of the steps:
as §1

In data set [1] the test system is RSV A2 F-protein expression in BEAS2B bronchial epithelial cells. The data set can be described thus: Assessment of RSV F protein expression in BEAS2B bronchial epithelial cells. It counts as cell-based. The settings on record: human respiratory syncytial virus, BEAS-2B, 72 h, read-out: RSV A2 F-protein IC50 (nM). Here is the method: Assessment of RSV F Protein Expression in BEAS2B Bronchial Epithelial Cells
An early event which follows the infection of epithelial cells by RSV is the expression of RSV F-protein on the cells' surface. BEAS2B cells (SV40-immortalised human bronchial epithelial cell line) were grown in 96 well plates. Once more than 70% confluent, cells were infected with RSV A2 (#0709161v, NCPV, Public Health England, Wiltshire) at an MOI of 0.01 in clear RPMI-1640 medium (Life technologies, Paisley, UK) with 2% FBS (Life technologies, Paisley, UK), and incubated for 3 days (37° C./5% CO2).
Supernatant was aspirated and the cells were fixed with 4% formaldehyde (100 μL in PBS solution) for 20 min, washed 3 times with washing buffer (200 μL; PBS containing 0.05% Tween-20) and incubated with blocking solution (100 μL; 5% Marvel milk in PBS) for 1 hr. Cells were then washed with washing buffer (200 μL) and incubated for 1 hr at 37° C. with anti-RSV (2F7; mouse monoclonal, lot 160290, Cat. No. ab43812, Abcam plc, Cambridge, UK) F-fusion protein antibody (50 μL; prepared at a 1:1000 dilution in 5% milk/PBS-tween). After washing, cells were incubated with an HRP-conjugated anti-mouse IgG antibody (50 μL prepared at a 1:2000 dilution in 5% milk in PBS; lot 00095437, Cat.No. P0447, Dako UK Ltd, Cambridgeshire, UK) for 1 hr. Cells were washed twice with washing buffer and once with PBS. TMB substrate (100 μL; substrate reagent pack lot 320436, Cat. No. DY999, R&D Systems, Inc. Abingdon, UK) was then added and the reaction was stopped by the addition of aq sulfuric acid (50 μL; 2N). The resultant signal was determined colourimetrically (OD: 450 nm with a reference wavelength of 655 nm) in a microplate reader (Multiskan FC®, ThermoFisher Scientific). Cells were then washed and 1% crystal violet solution (50 μL; lot SLB4576, Cat. No. HT90132-1L, Sigma-Aldrich) was applied for 30 min. After washing with PBS (200 μL) 3 times, 1% SDS (100 μL) was added to each well, and plates were shaken lightly for 1 hr prior to reading the absorbance at 595 nm. The measured OD450-655 readings were corrected for cell number by dividing the OD450-655 by the OD595 readings. The percentage inhibition for each well was calculated and the IC50 value derived from the concentration-response curve generated for each test compound.

The nature of data set [2]: Cell viability: resazurin assay. Type of data set: cell-based, human. The settings on record: human, HEp2 cells. The essentials: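 Viability read-out: resazurin fluorescence (ex 545, em 590 nm) after 6 h, following 5-day compound incubation of HEp2 cells (37 °C, 5% CO2, 5% FBS, 0.5% DMSO final). Loss expressed as percentage of vehicle, negative if viability rose; CC50 derived from concentration-response curve where appropriate.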

Consider `O=C(Nc1c(F)cccc1Cl)c1cc2c(s1)-c1ccccc1N(C(=O)c1ccc(NC(=O)c3cccnc3N3CC4(CCOCC4)C3)cc1)CC2` [Example 26, 6-(4-(2-(7-oxa-2-azaspiro[3.5]nonan-2-yl)nicotinamido)benzoyl)-N-(2-chloro-6-fluorophenyl)-5,6-dihydro-4H-benzo[b]thieno[2,3-d]azepine-2-carboxamide], for which the IC50 in the data set with RSV B Washington strain was found to be 9.3 nM; with RSV A2 strain it was 0.12 nM; in data set [1], 0.14 nM. Besides, the inhibition at 1 µg/mL in the data set with RSV B Washington strain (HEp-2) amounted to 73%. Moreover, the inhibition at 0.1 µg/mL in the data set on RSV A2 strain stood at 95%. In addition, the CC50 at 5 days in data set [2] is greater than 13.8 µM.

As to `Cc1ccccc1NC(=O)c1cc2c(s1)-c1ccccc1N(C(=O)c1ccc(NC(=O)c3cccnc3N3CC4(CCOCC4)C3)cc1)CC2` [Example 14, 6-(4-(2-(7-oxa-2-azaspiro[3.5]nonan-2-yl)nicotinamido)benzoyl)-N-(o-tolyl)-5,6-dihydro-4H-benzo[b]thieno[2,3-d] azepine-2-carboxamide], the IC50 with RSV B Washington strain was 54.5 nM; in the data set on RSV A2 strain, 0.65 nM; in data set [1], 0.41 nM. Moreover, the inhibition at 1 µg/mL with RSV B Washington strain (HEp-2) is 92%. Moreover, in the data set on RSV A2 strain, the inhibition at 0.1 µg/mL amounted to 100%. In data set [2], this compound gave a 50% cytotoxic concentration (CC50) at 5 days greater than 14.6 µM.

Take `O=C(Nc1c(F)cccc1F)c1cc2c(s1)-c1ccccc1N(C(=O)c1ccc(NC(=O)c3cc4c(nc3N3CC5(CCOCC5)C3)CCC4)cc1)CC2` [Example 75, 6-(4-(2-(7-oxa-2-azaspiro[3.5]nonan-2-yl)-6,7-dihydro-5H-cyclopenta[b]pyridine-3-carboxamido)benzoyl)-N-(2,6-difluorophenyl)-5,6-dihydro-4H-benzo[b]thieno[2,3-d] azepine-2-carboxamide]: the IC50 in the data set on RSV B Washington strain stood at 2.3 nM; in the data set with RSV A2 strain, 0.1 nM; in data set [1], 0.25 nM. For the same compound, the inhibition at 1 µg/mL with RSV B Washington strain (HEp-2) worked out at 100%. This compound also displayed an inhibition at 0.01 µg/mL in the data set with RSV A2 strain of 84%. In data set [2], this compound yielded a CC50 at 5 days greater than 13.4 µM.

As to `O=C(Nc1c(F)cccc1Cl)c1cc2c(s1)-c1ccccc1N(C(=O)c1ccc(NC(=O)c3cc4c(nc3N3CC5(CCOCC5)C3)CCCC4)cc1)CC2` [Example 81, 6-(4-(2-(7-oxa-2-azaspiro[3.5]nonan-2-yl)-5,6,7,8-tetra-hydroquinoline-3-carboxamido)benzoyl)-N-(2-chloro-6-fluorophenyl)-5,6-dihydro-4H-benzo[b]thieno[2,3-d]azepine-2-carboxamide], the IC50 with RSV B Washington strain came to 10.2 nM; in the data set on RSV A2 strain, 0.18 nM; in data set [1] it was 0.13 nM. In addition, the inhibition at 0.1 µg/mL with RSV B Washington strain (HEp-2, Inhibition (%) at 0.1 μg/mL) was determined as 100%. The same compound displayed an inhibition at 0.01 µg/mL in the data set with RSV A2 strain of 77%. The compound further yielded a CC50 at 5 days in data set [2] greater than 12.9 µM.
